Laboratory results as given in US12560591B2, “Methods of treatment with CD8 T cell-mediated immune therapy” (Providence Health & Services—Oregon, priority 2019, dated 2026).

Experiments:
[1] = test system: CXCR3^+CD8^+ T cells in the tumor microenvironment; experiment: Clinical trial NCT02688712: immunofluorescence of rectal tumor biopsies, baseline vs day 15; type: in vivo, human; settings: rectal cancer patient biopsies, baseline vs day 15, FIG. 12D-E
Source text: FIGS. 12A-12E are a series of panels showing TGFβ-mediated suppression of CXCR3-dependent CD8^+ T cell chemotaxis is relieved by LY2157299 in human patients with rectal cancer. […] FIG. 12B illustrates the clinical trial schema for a phase II clinical trial of rectal cancer patients and sample collection intervals. Patients receive two cycles of LY2157299 on days 1-14 and again on days 30-43 while receiving standard of care chemoradiation on days 15-57 prior to surgery. […] Patients are grouped by nodal status following neoadjuvant treatment (ypN). On the right, percent change in frequency of CXCR3^+CD3^+CD4^− T cells between days 1 and 15 is shown versus the neoadjuvant rectal (NAR) score. […] Each patient is shown (thin gray lines) along with the mean of all patients (thick black line). […]
To determine the clinical relevance of our data, the expression of CXCR3 in human patients was interrogated. […] Therefore, the CD4^+ T cell panel was used and back gated on CD45^+CD3^+CD4^− T cells, the majority of which are CD8^+ T cells (on average 65% of CD45^+CD3^+CD4^− cells were CD8^+ T cells using the T effector and memory panel which has CD45, CD3, CD4, and CD8, but not CXCR3), and calculated CXCR3 expression. […] Therefore, forceps-biopsy specimens obtained by proctoscopy at baseline and day 15 were evaluated for alterations in CXCR3^+CD8^+ T cells.

[2] = test system: Smad2 (ALK5 signaling) in tumor tissue; experiment: phospho-SMAD2 / CD8a co-immunofluorescence of tumor sections at day 14; type: in vivo, mouse; settings: day 14, one day post-LY treatment, specifically in CD8α^+ cells, FIG. 1C
Method: FIGS. 1A-1D are a series of panels showing that the TGFβR1 antagonist LY2157299 enhances chemo-radiation efficacy dependent on CD8α^+ cells in CT26 tumors. FIG. 1A is a treatment schema in the CT26 tumor model. Six to eight week old BALB/c mice were implanted subcutaneously in the left flank with 2×10^5 CT26 tumor cells. Seven days following implant, animals were randomized based on tumor size, and vehicle control or LY2157299 compound were administered by oral gavage twice daily every 12 hours at 150 mg/kg for 7 consecutive days. At day 14, some mice received five consecutive radiation treatments of 5 Gy targeted to tumor tissue along with 25 mg/kg injections of 5-fluorouracil (5FU) chemotherapy administered intraperitoneally on days 14, 16, and 18. LY treatment groups resumed BID oral dosing from days 21-27. Mean tumor growth (i) and survival (ii) were assessed three times per week up to 100 days or death (FIG. 1B). […] Arrows identify pSMAD2^+CD8^+ cells in vehicle mice. […] NS=not significant, *=p<0.05, **=p<0.01, ***=p<0.001.
Immunofluorescence: Human rectal cancer biopsies were fixed in 10% NBF overnight and mouse tumors were fixed in zinc fixative overnight prior to tissue processing and paraffin embedding followed by sectioning cut at 5 microns for immunofluorescent staining. […]
Production of TGFβ by cells within the tumor was evaluated.

SMILES: Cc1cccc(-c2nn3c(c2-c2ccnc4ccc(C(N)=O)cc24)CCC3)n1 [LY2157299]
- percentage CXCR3^+CD8^+ T cells in the tumor microenvironment [1]: increase in the percentage CXCR3^+CD8^+ T cells
- phosphorylation and nuclear translocation of Smad2 in tumor sections [2]: reduced phosphorylation and nuclear translocation
